Data on 43 compounds can be found in US11661583B2, “Drug discovery platform for Duchenne cardiomyopathy” (University of Washington, priority 2015, dated 2023).

Where a name gives a salt, the structure may show the parent alone. Read-outs that look alike come from different tables or passages of the source.

Data set [1] concerns dystrophin locus. The data set is described as follows: SURVEYOR assay of guide RNA targeting efficiency in HEK293T cells. The format is cell-based, human. The conditions noted are these: FIG. 9A. The source says:
(THERMO […], Waltham, Mass.) using primer set […] ID NO:3) and […] ID NO:4).

Data set [2] concerns dystrophin deficient cardiomyocytes. Kind of data set: High-throughput hypotonic stress cell viability (intracellular ATP) screen. To be noted: for Average of % viability: 384-well, 18 hours compound incubation, then 30 minutes at 12.5% normal osmolarity, CELLTITER-GLO, vs average of DMSO control wells, tested at 10^-8 to 10^-5 M, concentration not given; for Z score / Effect on viability in hypotonic stress screen (in words): primary screen; for Z score: data points ranked by Z score; for Effect on viability in hypotonic stress screen (in words): dose-response, FIG. 8.

Data set [3] shares this test system.

For “gRNA 4: guide sequence GCTTTGGTGGGAAGAAGTAGAGG (SEQ ID NO: 8) targeting first muscle exon of human dystrophin (listed as DNA, chemistry not fully specified)”, in data set [1], the cutting efficiency is listed as 44.3%. Turning to `CN1CCN(C(c2ccccc2)c2ccc(Cl)cc2)CC1` (centres unmarked) [CHLORCYCLIZINE HYDROCHLORIDE], in data set [2], the “Average of % viability” value is 238.84 ± 35.23% and the Z score stood at 6.56.

As for `O=C1O[C@H]([C@@H](O)CO)C(O)=C1O` [ASCORBIC ACID], the “Average of % viability” value in data set [2] worked out at 181.48 ± 23.68%. As for `COCCOC(=O)C1=C(C)NC(C)=C(C(=O)OC(C)C)C1c1cccc([N+](=O)[O-])c1` (centres unmarked) [NIMODIPINE], in data set [2], the “Average of % viability” value is 292.38 ± 56.17% and the Z score was 8.97. Regarding `CC(C)COCC(CN(Cc1ccccc1)c1ccccc1)N1CCCC1` (centres unmarked) [BEPRIDIL HYDROCHLORIDE], in data set [2], the “Average of % viability” value turned out to be 178.65 ± 3.48% and the Z score is reported as 3.84. In the case of `COc1ccc2cc([C@H](C)CO)ccc2c1` [NAPROXOL], in data set [2], the “Average of % viability” value is on record as 168.76 ± 2.61% and the Z score turned out to be 3.39. As to `NC(=O)c1ccc([N+](=O)[O-])cc1Cl` [AKLOMIDE], in data set [2], the “Average of % viability” value is on record as 276.60 ± 12.37% and the Z score is listed as 8.26. On the same counts, the results for `COc1cccc2c1C(=O)c1c(O)c3c(c(O)c1C2=O)C[C@@](O)(C(=O)CO)C[C@@H]3O[C@H]1C[C@H](N)[C@H](O)[C@H](C)O1` [DOXORUBICIN] are 207.98 ± 34.29% and 5.16.

With `NC(=O)NO` [HYDROXYUREA], in data set [2], the “Average of % viability” value is recorded as 187.65 ± 49.61% and the Z score was found to be 4.25. Taken in the same sequence, the figures for `O=C(O)C(O)C(O)C(=O)O.OCc1cccnc1` (centres unmarked) [NICOTINYL ALCOHOL TARTRATE] were 262.12 ± 57.89% and 7.61.

Take `COc1cc([C@@H]2c3cc4c(cc3[C@H](O)[C@H]3COC(=O)[C@H]23)OCO4)cc(OC)c1OC` [PODOFILOX]: in data set [2], the “Average of % viability” value is recorded as 168.46 ± 28.98% and the Z score was 3.38. Consider `O=C(O)c1cc(-c2ccccc2)nc2ccccc12` [CINCHOPHEN], for which, in data set [2], the “Average of % viability” value is on record as 168.44 ± 44.63% and the Z score was 3.38. On the same counts, the results for `COc1ncnc(NS(=O)(=O)c2ccc(N)cc2)c1OC` [SULFADOXINE] are 195.32 ± 23.52% and 4.59.

Turning to `CCCCC1C(=O)N(c2ccccc2)N(c2ccc(O)cc2)C1=O` (centres unmarked) [OXYPHENBUTAZONE], in data set [2], the Z score was determined as 3.76. Also, the “Average of % viability” value in data set [3] is listed as 176.96 ± 42.53%. As for `C[C@@]12C(=O)OC(=O)[C@]1(C)[C@H]1CC[C@@H]2O1` [CANTHARIDIN], in data set [2], the “Average of % viability” value was 239.59 ± 14.65% and the Z score worked out at 6.59.

On to `Nc1nc2c(ncn2COCCO)c(=O)[nH]1` [ACYCLOVIR], for which, in data set [2], the “Average of % viability” value is 258.33 ± 14.16% and the Z score is 7.44. Turning to `CC(=O)c1ccc2c(c1)N(CCCN(C)C)c1ccccc1S2` [ACEPROMAZINE MALEATE], in data set [2], the “Average of % viability” value is 239.1 ± 38.37% and the Z score turned out to be 6.57. On the same counts, the results for `CCCCCCCCCCCCCCCC(=O)OC/C=C(C)/C=C/C=C(C)/C=C/C1=C(C)CCCC1(C)C` [RETINYL PALMITATE] are 236.79 ± 46.63% and 6.46. As for `CC(C)NCC(O)COc1ccc(CC(N)=O)cc1` (centres unmarked) [ATENOLOL], in data set [2], the Z score came to 3.51. Compound `CN1CCc2c(c3ccccc3n2Cc2ccccc2)C1.CN1CCc2c(c3ccccc3n2Cc2ccccc2)C1.O=S(=O)(O)c1cccc2c(S(=O)(=O)O)cccc12` [MEBHYDROLIN NAPHTHALENE SULFONATE] had a Z score in data set [2] of 3.58. As for `CCN(CC)CCOc1ccc2c(c1)C(=O)c1cc(OCCN(CC)CC)ccc1-2` [TILORONE], in data set [2], the “Average of % viability” value was determined as 172.53 ± 15.79% and the Z score stood at 3.56. Taken in the same sequence, the figures for `C=CC1=C(C(=O)O)N2C(=O)[C@@H](NC(=O)/C(=N\O)c3csc(N)n3)[C@H]2SC1` were 185.70 ± 45.76% and 4.16. As to `C[C@]12CC[C@@H]3c4ccc(OS(=O)(=O)O)cc4CC[C@H]3[C@@H]1CCC2=O` [ESTROPIPATE], in data set [2], the “Average of % viability” value amounted to 208.65 ± 30.77% and the Z score amounted to 5.19. In the case of `C[C@@H]1CC[C@@]2(OC1)O[C@H]1[C@@H](O)[C@H]3[C@@H]4CC[C@H]5C[C@@H](O[C@@H]6O[C@H](CO)[C@H](O[C@@H]7O[C@H](CO)[C@@H](O)[C@H](O[C@@H]8OC[C@@H](O)[C@H](O)[C@H]8O)[C@H]7O[C@@H]7O[C@H](CO)[C@H](O)[C@H](O[C@@H]8O[C@H](CO)[C@@H](O)[C@H](O)[C@H]8O)[C@H]7O)[C@H](O)[C@H]6O)[C@H](O)C[C@]5(C)[C@H]4CC[C@]3(C)[C@H]1[C@@H]2C` [digitonin], in data set [2], the Z score entry is listed as “lowest Z score” and the “Effect on viability in hypotonic stress screen (in words)” value was “dose-responsive toxicity”. In the case of `CCCCc1oc2ccccc2c1C(=O)c1cc(I)c(OCCN(CC)CC)c(I)c1` [AMIODARONE HYDROCHLORIDE], in data set [2], the Z score is 3.37.

With `COc1ccc(C[C@H](N)C(=O)N[C@H]2[C@@H](O)[C@H](n3cnc4c(N(C)C)ncnc43)O[C@@H]2CO)cc1` [PUROMYCIN HYDROCHLORIDE], in data set [2], the “Average of % viability” value was determined as 187.84 ± 39.68% and the Z score is given as 4.25. As to `CN1C(=O)CC[C@H]1c1cccnc1` [COTININE], in data set [2], the “Average of % viability” value was 188.79 ± 56.0% and the Z score amounted to 4.30. Taken in the same sequence, the figures for `O=C(CCCN1CCC(O)(c2ccc(Cl)cc2)CC1)c1ccc(F)cc1` [HALOPERIDOL] were 197.30 ± 19.03% and 4.68.

Take BENZALKONIUM CHLORIDE: in data set [2], the “Average of % viability” value was 194.64 ± 23.10% and the Z score was 4.56.

Regarding `CC(=O)OCC(=O)[C@@]1(O)CC[C@H]2[C@@H]3CCC4=CC(=O)CC[C@]4(C)[C@H]3C(=O)C[C@@]21C` [CORTISONE ACETATE], in data set [2], the “Average of % viability” value worked out at 205.92 ± 12.32% and the Z score is 5.07.

As for `Nc1ccc(C(=O)NCC(=O)O)cc1` [AMINOHIPPURIC ACID], in data set [2], the “Average of % viability” value is 207.49 ± 7.09% and the Z score is 5.14. Taken in the same sequence, the figures for `CC=CC(=O)N(CC)c1ccccc1C` [CROTAMITON] were 178.25 ± 27.22% and 3.82. For the compound `CN(C)/N=N/c1[nH]cnc1C(N)=O` [DACARBAZINE], in data set [2], the “Average of % viability” value was 177.63 ± 45.35% and the Z score was determined as 3.79. For `Cn1c(=O)c2c(ncn2C)n(C)c1=O` [Caffeine], in data set [2], the “Effect on viability in hypotonic stress screen (in words)” value was “demonstrated the opposite effect”.

For `CC(=O)O[C@H]1CC[C@@]2(C)[C@H](CC[C@@H]3[C@@H]2CC[C@]2(C)[C@@H](C4=CC(=O)OC4)[C@@H](OC(C)=O)C[C@]32O)C1` [GITOXIGENIN DIACETATE], in data set [2], the “Average of % viability” value was determined as 177.20 ± 1.17% and the Z score was 3.77. Consider ANTIMYCIN A, for which, in data set [2], the “Average of % viability” value is 180.04 ± 1.89% and the Z score is 3.90. With `CO[C@H]1C[C@H](O[C@@H]2/C(C)=C/C[C@@H]3C[C@@H](C[C@]4(CC[C@H](C)[C@@H](C5CCCCC5)O4)O3)OC(=O)[C@@H]3C=C(C)/C(=N/O)[C@H]4OC/C(=C\C=C\[C@@H]2C)[C@]43O)O[C@@H](C)[C@@H]1O` [SELAMECTIN], in data set [2], the “Average of % viability” value amounted to 172.91 ± 25.29% and the Z score is given as 3.58.

For `O=C(O)CCCC[C@@H]1SC[C@@H]2NC(=O)N[C@@H]21` [BIOTIN], in data set [2], the “Average of % viability” value is 315.95 ± 51.89% and the Z score was found to be 10.04. For `CCOC(=O)C1=C(C)NC(C)=C(C(=O)OC)C1c1cccc([N+](=O)[O-])c1` (centres unmarked) [NITRENDIPINE], in data set [2], the “Average of % viability” value was found to be 275.48 ± 52.16% and the Z score was 8.21. Turning to `CCCN(CCC)C(=O)C(CCC(=O)O)NC(=O)c1ccccc1` (centres unmarked) [PROGLUMIDE], in data set [2], the “Average of % viability” value stood at 175.69 ± 50.35% and the Z score was 3.71.

As to `CN(C)c1nc(N(C)C)nc(N(C)C)n1` [ALTRETAMINE], in data set [2], the “Average of % viability” value turned out to be 188.22 ± 2.87% and the Z score was 4.27. As to `COC(=O)[C@H](c1ccccc1Cl)N1CCc2sccc2C1` [CLOPIDOGREL SULFATE], in data set [2], the “Average of % viability” value amounted to 194.84 ± 50.3% and the Z score is 4.57. On the same counts, the results for `CC(C)(C)c1ccc(C(O)CCCN2CCC(C(O)(c3ccccc3)c3ccccc3)CC2)cc1` (centres unmarked) [TERFENADINE] are 211.28 ± 22.46% and 5.31.
